# Laboratory results from patent US12194082B2, “Compositions and methods for treatment of homocystinuria” (THE REGENTS OF THE UNIVERSITY OF COLORADO, priority 2016, dated 2025).
# Read-outs that look alike come from different tables or passages of the source.
# Legend:
# [1] = tested on: I278T mice; experiment: DEXA bone mineralization and body composition in I278T mice; type: in vivo, mouse; details: 7.5 mg/kg SC 3x/week from 6 to 13 months of age
# Procedure: A PIXImusII DEXA scanner (GE Lunar Medical Systems) specifically designed for scanning small animals such as mice was used for DEXA analysis. This machine enabled quick and efficient determination of the body composition (lean, fat mass, and bone density) of a mouse before terminal tissue extraction procedures. Mice were fasted for 4 hours prior to the DEXA measurement to remove food from the gastro-intestinal tract. Mice were then anesthetized using IP bolus injection of 60 mg/kg ketamine and 15 mg/kg xylazine and placed on a tray in the DEXA machine. After the measurement was done (3˜5 minutes), the mice were removed from the DEXA machine and used in terminal procedures, such as tissue extractions.
# The bone mineral density (BMD) and bone mineral content (BMC) were analyzed by DEXA for three groups of I278T mice: +/− healthy heterozygous controls (n=10M+11F), −/− affected homozygous I278T controls (n=6M+8F), and 20NHS PEG-htCBS C15S-treated I278T mice (n=6M+6F). The 20NHS PEG-htCBS C15S (C15S/ME-200GS)-treated I278T mice were administered 7.5 mg/kg subcutaneously (SC) 3 times per week from the age of 6 months up to the age of 13 months. FIG. 17A, FIG. 17B, FIG. 17C, FIG. 17D, and FIG. 17E are graphs comparing BMD (g/cm^2), BMC (g), total mass (g), lean mass (g), and fat content (%), respectively, among the three groups of mice. […]
# [2] = tested on: homocysteine, cystathionine, cysteine, lanthionine, and homolanthionine; experiment: Pharmacodynamics (plasma sulfur amino acid metabolites) in monkeys; type: in vivo, cynomolgus monkeys (Macaca fascicularis); design: Cystathionine plasma level / Lanthionine plasma level / Homolanthionine plasma level: unit not given here; details: for Homolanthionine plasma level / Lanthionine plasma level / Cystathionine plasma level: mean ± SEM
# Procedure: (§1) Plasma metabolites homocysteine, cystathionine and cysteine were determined by stable-isotope-dilution liquid chromatography mass spectrometry as previously described in (Allen et al., 1993, Metabolism, 42: 1448-1460). Measurements of total non-protein bound homocysteine and other aminothiols as well as of amino acids in tissue were performed as described in (Maclean et al., 2010b. Mol. Genet. Metab. 101, 153-162). Metabolites were determined by stable-isotope-dilution liquid chromatography mass spectrometry.
# [3] = for Peak @ SS, predicted / Trough @ SS, predicted: 80% bioavailability assumed; for Extrapolated concentration: hypothetical single dose curve
# Procedure: Using a dose of 5 mg/kg and correcting for the difference in body surface area between humans (70 kg) and mice (0.025 kg), a dose of 0.4 mg/kg was estimated to be the efficacious human equivalent dose (HED). […] Since the substrate for 20NHS PEG-htCBS C15S activity (Hcy and serine) was the same across species and the site of action was the blood pool itself, these parameters provide an accurate estimate of the target human plasma levels required for efficacy in a 20NHS PEG-htCBS clinical trial.
# Interspecies comparisons were conducted based upon body surface area scaling assuming an 80% bioavialability in all 3 species (mouse, rat and monkey) to determine if a linear correlation existed between the log body weight and the log of various PK parameters (AUC/dose, Cmax per dose and T1/2). […] Linear correlations allow predictions of the clinical dose and dosing regimen from the preclinical data to be made.
# By extrapolating to the log body weight for humans (70 kg) for each parameter, the AUC/dose, Cmax/dose, and T1/2 was calculated for human subjects.
# The human predicted efficacious dose was calculated from the efficacious dose in mice (5 mg/kg) by allometric scaling to be 0.4 mg/kg in a 70 kg human.
# [4] = tested on: Hcy, Cth, Cys; experiment: Plasma metabolites in surviving treated KO mice (trough and peak); type: in vivo; details: 7.5 mg/kg 3x weekly
# Procedure: as §1
# Metabolite levels in surviving KO mice at age of about 4-5 weeks were measured after a weekend washout (trough) and 24 hours after the last injection (peak) using the experimental procedure in Example 1.
# [5] = tested on: Hcy, Cys, Cth, and Met; experiment: Metabolite levels in plasma and tissues of KO mice at 18-19 days of age; type: in vivo
# Procedure: as §1
# Plasma and tissue metabolites were measured in the groups of wild-type mice (control), untreated homozygous −/− affected KO mice, and 400MA PEG-htCBS C15S-treated KO mice. The treated group was administered subcutaneous injections of 400MA PEG-htCBS C15S 3 times per week at a dose of 7.5 mg/kg from the age of 2 days. Plasma and tissues were harvested 24 hours after the last injection.
# [6] = body surface area scaling, 70 kg human
# [7] = human, 0.33 mg/kg SC 1x/week (168 h)
# [8] = human, 0.33 mg/kg SC 2x/week (84 h)
# [9] = human, 0.66 mg/kg SC 1x/week (168 h)
# [10] = human, 0.66 mg/kg SC 2x/week (84 h)
# [11] = human, 1 mg/kg SC 1x/wk (168 h)
# [12] = 7.5 mg/kg SC 3x/week from day 2, 24 hours after last injection, mean ± SEM
# [13] = 7.5 mg/kg SC 3x/week from day 2, mean ± SEM
substance,measurement,setting,value
20NHS PEG-htCBS C15S: htCBS C15S PEGylated with ME-200GS PEG (20 kDa linear NHS ester-activated PEG),bone mineralization (BMD) vs healthy heterozygous controls,[1],indistinguishable
same,osteoporosis and body composition (DEXA),[1],prevented profound osteoporosis and improved body composition
same,Homolanthionine plasma level,"[2]; 1 mg/kg SC every 72 h, 176 h",64 ± 7
same,Lanthionine plasma level,"[2]; 1 mg/kg SC every 72 h, 176 h",46 ± 9
same,Cystathionine plasma level,"[2]; 1 mg/kg SC every 72 h, 176 h after first injection",4010 ± 236
same,Cystathionine plasma level,"[2]; 1 mg/kg SC every 72 h, 392 h",4272 ± 333
same,Homolanthionine plasma level,"[2]; 1 mg/kg SC every 72 h, 392 h",72 ± 5
same,Lanthionine plasma level,"[2]; 1 mg/kg SC every 72 h, 392 h",69 ± 7
same,Cystathionine plasma level,"[2]; 3 mg/kg SC every 72 h, 176 h",5629 ± 284
same,Homolanthionine plasma level,"[2]; 3 mg/kg SC every 72 h, 176 h",64 ± 4
same,Lanthionine plasma level,"[2]; 3 mg/kg SC every 72 h, 176 h",103 ± 7
same,Cystathionine plasma level,"[2]; 3 mg/kg SC every 72 h, 392 h",5893 ± 390
same,Homolanthionine plasma level,"[2]; 3 mg/kg SC every 72 h, 392 h",60 ± 10
same,Lanthionine plasma level,"[2]; 3 mg/kg SC every 72 h, 392 h",109 ± 9
same,Cystathionine plasma level,"[2]; 10 mg/kg SC every 72 h, 176 h",7098 ± 12
same,Homolanthionine plasma level,"[2]; 10 mg/kg SC every 72 h, 176 h",50 ± 3
same,Lanthionine plasma level,"[2]; 10 mg/kg SC every 72 h, 176 h",281 ± 43
same,Cystathionine plasma level,"[2]; 10 mg/kg SC every 72 h, 392 h",9318 ± 288
same,Homolanthionine plasma level,"[2]; 10 mg/kg SC every 72 h, 392 h",53 ± 4
same,Lanthionine plasma level,"[2]; 10 mg/kg SC every 72 h, 392 h",353 ± 38
same,plasma Cth,"[2]; 8 hours after IV, 8 and 48 hours after SC administration",significant spikes
same,plasma levels of Hcy and Cys,"[2]; single IV or SC dose, healthy wild-type monkeys",No significant changes
same,"Initial Cmax, predicted",[3]; 0.33 mg/kg,11.3 mU/μL
same,"Initial Cmax, predicted",[3]; 0.66 mg/kg,22.6 mU/μL
same,"Initial Cmax, predicted",[3]; 1 mg/kg,34 mU/μL
same,"AUC/dose, human predicted value",[3]; [6],7474 (mU-h/mL)/(mg/kg)
same,"Cmax/dose, human predicted value",[3]; [6],34 (mU/μL)/(mg/kg)
same,E intercept of hypothetical single dose PK curve,[3]; human,43.079
same,"Peak @ SS, predicted",[3]; [7],22.6 mU/μL
same,"Trough @ SS, predicted",[3]; [7],15.4 mU/μL
same,"Peak @ SS, predicted",[3]; [8],41 mU/μL
same,"Trough @ SS, predicted",[3]; [8],34.5 mU/μL
same,"Peak @ SS, predicted",[3]; [9],45.2 mU/μL
same,"Trough @ SS, predicted",[3]; [9],30.8 mU/μL
same,"Peak @ SS, predicted",[3]; [10],82 mU/μL
same,"Trough @ SS, predicted",[3]; [10],69 mU/μL
same,"C1min, predicted",[3]; [11],22.3
same,"Peak @ SS, predicted",[3]; [11],67.9 mU/μL
same,"Trough @ SS, predicted",[3]; [11],46.2 mU/μL
same,"C1min, predicted","[3]; human, 1 mg/kg SC 2x/wk (84 h)",29.0
same,"Peak @ SS, predicted","[3]; human, 1 mg/kg SC 2x/wk (84 h)",123 mU/μL
same,"Trough @ SS, predicted","[3]; human, 1 mg/kg SC 2x/wk (84 h)",109 mU/μL
same,Extrapolated concentration,"[3]; human, 0 hours",0
same,Extrapolated concentration,"[3]; human, 1 hours",0.9
same,Extrapolated concentration,"[3]; human, 2 hours",2
same,Extrapolated concentration,"[3]; human, 4 hours",4.3
same,Extrapolated concentration,"[3]; human, 8 hours",8
same,Extrapolated concentration,"[3]; human, 20 hours",20
same,Extrapolated concentration,"[3]; human, 48 hours",33.3
same,Extrapolated concentration,"[3]; human, 72 hours",34
same,Extrapolated concentration,"[3]; human, 96 hours",28
same,Extrapolated concentration,"[3]; human, 240 hours",16.7
same,Extrapolated concentration,"[3]; human, 336 hours",12
same,Extrapolated concentration,"[3]; human, 408 hours",8.5
same,plasma Cys,[4]; 24 hours post-dose,176 ± 6 µM
same,plasma Hcy,[4]; 24 hours post-dose,96 ± 8 µM
same,plasma Cys,[4]; 72 hours post-dose,106 ± 6 µM
same,plasma Hcy,[4]; 72 hours post-dose,179 ± 10 µM
same,Cystathionine in plasma,[5]; [12],133.2 ± 9.1 µM
same,Cysteine in plasma,[5]; [12],211.7 ± 11.5 µM
same,Homocysteine in plasma,[5]; [12],52.8 ± 6.8 µM
same,Methionine in plasma,[5]; [12],99.2 ± 5.4 µM
same,Cystathionine in brain tissue,[5]; [13],8.5 ± 1.1 nmols/g
same,Cystathionine in kidney tissue,[5]; [13],256.0 ± 77.5 nmols/g
same,Cystathionine in liver tissue,[5]; [13],18.9 ± 1.8 nmols/g
same,Cysteine in brain tissue,[5]; [13],56.8 ± 3.0 nmols/g
same,Cysteine in kidney tissue,[5]; [13],282.8 ± 17.1 nmols/g
same,Cysteine in liver tissue,[5]; [13],205.2 ± 27.4 nmols/g
same,Homocysteine in brain tissue,[5]; [13],1.1 ± 0.1 nmols/g
same,Homocysteine in kidney tissue,[5]; [13],6.76 ± 4.42 nmols/g
same,Homocysteine in liver tissue,[5]; [13],22.4 ± 3.4 nmols/g
same,Methionine in brain tissue,[5]; [13],68.6 ± 4.7 nmols/g
same,Methionine in kidney tissue,[5]; [13],53.3 ± 2.9 nmols/g
same,Methionine in liver tissue,[5]; [13],25.5 ± 3.4 nmols/g
